Measurements reported in patent publication US8987276B2, “Substituted triazolyl piperazine and triazolyl piperidine derivatives as gamma secretase modulators” (Janssen Pharmaceuticals, Inc., priority 2011, dated 2015).
Counter-ions that a name gives are not always drawn.

Tests used:
[1] = system: Aβ42; experiment: Screening for γ-secretase-modulating activity: Aβ42 in supernatant of SKNBE2 cells carrying APP 695-wild type (Alphalisa); type: cell-based; settings: Homo sapiens, overnight incubation, cell supernatant
Experimental: (§1) Screening was carried out using SKNBE2 cells carrying the APP 695-wild type, grown in Dulbecco's Modified Eagle's Medium/Nutrient mixture F-12 (DMEM/NUT-mix F-12) (HAM) provided by Invitrogen (cat no. 10371-029) containing 5% Serum/Fe supplemented with 1% non-essential amino acids, 1-glutamine 2 mM, Hepes 15 mM, penicillin 50 U/ml (units/ml) en streptomycin 50 µg/ml. Cells were grown to near confluency.
(§2) The screening was performed using a modification of the assay as described in Citron et al (1997) Nature Medicine 3: 67. Briefly, cells were plated in a 384-well plate at 10^4 cells/well in Ultraculture (Lonza, BE12-725F) supplemented with 1% glutamine (Invitrogen, 25030-024), 1% non-essential amino acid (NEAA), penicillin 50 U/ml en streptomycin […] in the presence of test compound at different test concentrations. The cell/compound mixture was incubated overnight at 37° C., 5% CO2. The next day the media were assayed by two sandwich immuno-assays, for Aβ42 and Aβtotal.
(§3) Aβtotal and Aβ42 concentrations were quantified in the cell supernatant using the Aphalisa technology (Perkin Elmer). Alphalisa is a sandwich assay using biotinylated antibody attached to streptavidin coated donorbeads and antibody conjugated to acceptor beads. In the presence of antigen, the beads come into close proximity. The excitation of the donor beads provokes the release of singlet oxygen molecules that trigger a cascade of energy transfer in the acceptor beads, resulting in light emission.
(§4) To quantify the amount of Aβ42 in the cell supernatant, monoclonal antibody specific to the C-terminus of Aβ42 (JRF/cAB42/26) was coupled to the receptor beads and biotinylated antibody specific to the N-terminus of Aβ (JRF/ABN/25) was used to react with the donor beads. T quantify the amount of Aβtotal in the cell supernatant, monoclonal antibody specifc to the N-terminus of Aβ (JRF/AβN/25) was coupled to the receptor beads and biotinylated antibody specific to the mid region of Aβ (biotinylated 4G8) was used to react with the donor beads.
(§5) To obtain the values reported in Table 3, the data are calculated as percentage of the maximum amount of amyloid Beta 42 measured in the absence of the test compound. The sigmoidal dose response curves were analyzed using non-linear regression analysis with percentage of the control plotted against the log concentration of the compound. A 4-parameter equation was used to determine the IC50.

[2] = system: Aβtotal; experiment: Screening for γ-secretase-modulating activity: Aβtotal in supernatant of SKNBE2 cells carrying APP 695-wild type (Alphalisa); type: cell-based; settings: Homo sapiens, overnight incubation, cell supernatant
Experimental: as §1, §2, §3, §4, §5

[3] = system: Aβ42; experiment: In vivo efficacy: brain soluble Aβ42 lowering in non-transgenic animals (ELISA); design: species or system mouse; settings: dose 30 mg/kg oral dosing; brain soluble fraction, 4 h after dose; untreated animals (Ctrl) set at 100
Text: (§6) To determine whether acute administration of an Aβ42 lowering agent would reduce Aβ42 levels in vivo, non-transgenic rodents, e.g. mice or rats were used. Animals treated with the Aβ42 lowering agent were examined and compared to those untreated or treated with vehicle and brain levels of soluble Aβ42 and total Aβ were quantitated by standard techniques, for example, using ELISA. Treatment periods varied from hours (h) to days and were adjusted based on the results of the Aβ42 lowering once a time course of onset of effect could be established.
(§7) A typical protocol for measuring Aβ42 lowering in vivo is shown but it is only one of many variations that could be used to optimize the levels of detectable A3. For example, Aβ42 lowering compounds were formulated in 20% of Captisol® (a sulfobutyl ether of β-cyclodextrin) in water or 20% hydroxypropyl 0 cyclodextrin. The Aβ42 lowering agents were administered as a single oral dose or by any acceptable route of administration to overnight fasted animals. After 4 h, the animals were sacrificed and Aβ42 levels were analysed.
(§8) Blood was collected by decapitation and exsanguinations in EDTA-treated collection tubes. […] The left hemisphere was stored at −18° C. for quantitative analysis of test compound levels. […]
(§9) Mouse brains from non-transgenic animals were resuspended in 8 volumes of 0.4% DEA (diethylamine)/50 mM NaCl containing protease inhibitors (Roche-11873580001 or 04693159001) per gram of tissue, e.g. for 0.158 g brain, add 1.264 ml of 0.4% DEA. […] Nine parts of supernatant were neutralized with 1 part 0.5 M Tris-HCl pH 6.8 and used to quantify Aβtotal and Aβ42.
(§10) To quantify the amount of Aβtotal and Aβ42 in the soluble fraction of the brain homogenates, Enzyme-Linked-Immunosorbent-Assays were used. […] Following this incubation and subsequent wash steps the ELISA for Aβ42 quantification was finished by addition of Quanta Blu fluorogenic peroxidase substrate according to the manufacturer's instructions (Pierce Corp., Rockford, Il). A reading was performed after 10 to 15 min (excitation 320 nm/emission 420 nm). […]

[4] = system: Aβtotal; experiment: In vivo efficacy: brain soluble Aβtotal in non-transgenic animals (ELISA); design: species or system mouse; settings: dose 30 mg/kg oral dosing; brain soluble fraction, 4 h after dose; untreated animals (Ctrl) set at 100
Text: as §6, §7, §8, §9, §10

| SMILES | IC50 [1] [nM] | IC50 [2] [nM] | melting point [°C] | Aβ42 (% vs Ctrl)_Mean [3] [% vs Ctrl] | Aβtotal (% vs Ctrl)_Mean [4] [% vs Ctrl] |
| --- | --- | --- | --- | --- | --- |
| Cn1nc(N2CCN(Cc3ccncc3)CC2)nc1Nc1cc(C(F)(F)F)ccc1F [Compound 12, N-[2-fluoro-5-(trifluoromethyl)phenyl]-1-methyl-3-[4-(4-pyridinylmethyl)-1-piperazinyl]-1H-1,2,4-triazol-5-amine] | > 10000 | > 10000 | 161.4 |  |  |
| COc1ccc(N2CCN(c3nc(Nc4cccc(F)c4C(F)(F)F)n(C)n3)CC2(C)C)cc1 [Compound 3, N-[3-fluoro-2-(trifluoromethyl)phenyl]-3-[4-(4-methoxyphenyl)-3,3-dimethyl-1-piperazinyl]-1-methyl-1H-1,2,4-triazol-5-amine] | 50 | > 10000 |  |  |  |
| Cc1cc(OC2CCN(c3nc(Nc4cc(C(F)(F)F)ccc4F)n(C)n3)CC2)ccn1 [Compound 15, N-[2-fluoro-5-(trifluoromethyl)phenyl]-1-methyl-3-[4-[(2-methyl-4-pyridinyl)oxy]-1-piperidinyl]-1H-1,2,4-triazol-5-amine] | 250 | > 10000 | 177.4 |  |  |
| COc1ccc(N2CCN(c3nc(Nc4cccc(OC(F)(F)F)c4)n(C)n3)CC2(C)C)cc1 [Compound 4, 3-[4-(4-methoxyphenyl)-3,3-dimethyl-1-piperazinyl]-1-methyl-N-[3-(trifluoromethoxy)phenyl]-1H-1,2,4-triazol-5-amine.HCl] | 70 | > 10000 |  |  |  |
| COc1ccc(N2CCN(c3nc(Nc4cc(F)cc(C(F)(F)F)c4)n(C)n3)CC2(C)C)cc1 [Compound 5, N-[3-fluoro-5-(trifluoromethyl)phenyl]-3-[4-(4-methoxyphenyl)-3,3-dimethyl-1-piperazinyl]-1-methyl-1H-1,2,4-triazol-5-amine.0.8HCl] | 140 | > 10000 |  |  |  |
| COc1ccc(N2CCN(c3nc(-c4ccc(F)cc4)n(C)n3)CC2)cc1 [Compound 16, 1-[5-(4-fluorophenyl)-1-methyl-1H-1,2,4-triazol-3-yl]-4-(4-methoxyphenyl)-piperazine] | 4070 | > 10000 | 191.6 |  |  |
| Cn1nc(N2CCN(c3ccncc3)CC2)nc1Nc1cc(C(F)(F)F)ccc1F [Compound 10, N-[2-fluoro-5-(trifluoromethyl)phenyl]-1-methyl-3-[4-(4-pyridinyl)-1-piperazinyl]-1H-1,2,4-triazol-5-amine] | 4900 | > 10000 | 261.8 |  |  |
| COc1ccc(N2CCN(c3nc(Nc4ccccc4C)n(C)n3)CC2(C)C)cc1 [Compound 1, 3-[4-(4-methoxyphenyl)-3,3-dimethyl-1-piperazinyl]-1-methyl-N-(2-methylphenyl)-1H-1,2,4-triazol-5-amine] | 50 | > 10000 | 156.8 | 50 | 107 |
| Cc1cc(CC2CCN(c3nc(Nc4cc(C(F)(F)F)ccc4F)n(C)n3)CC2)ccn1 [Compound 11, N-[2-fluoro-5-(trifluoromethyl)phenyl]-1-methyl-3-[4-[(2-methyl-4-pyridinyl)methyl]-1-piperidinyl]-1H-1,2,4-triazol-5-amine.HCl.H2O] | 6920 | > 10000 |  |  |  |
| COc1ccc(N2CCN(c3nc(Nc4ccccc4C(F)(F)F)n(C)n3)CC2(C)C)cc1 [Compound 2, 3-[4-(4-methoxyphenyl)-3,3-dimethyl-1-piperazinyl]-1-methyl-N-[2-(trifluoromethyl)phenyl]-1H-1,2,4-triazol-5-amine] | 90 | > 10000 |  |  |  |
| Cn1nc(N2CCC(Oc3ccncc3)CC2)nc1Nc1cc(C(F)(F)F)ccc1F [Compound 7, N-[2-fluoro-5-(trifluoromethyl)phenyl]-1-methyl-3-[4-(4-pyridinyloxy)-1-piperidinyl]-1H-1,2,4-triazol-5-amine] | 720 | > 10000 |  |  |  |
| Cc1cc(OC2CCN(c3nc(Nc4cc(C(F)(F)F)ccc4F)n(C)n3)CC2)ncn1 [Compound 8, N-[2-fluoro-5-(trifluoromethyl)phenyl]-1-methyl-3-[4-[(6-methyl-4-pyrimidinyl)oxy]-1-piperidinyl]-1H-1,2,4-triazol-5-amine] | 950 | > 10000 | 158 |  |  |
| COc1ccc(N2CCN(c3nc(Nc4cc(C(F)(F)F)ccc4F)n(C)n3)CC2)cc1 [Compound 9, N-[2-fluoro-5-(trifluoromethyl)phenyl]-3-[4-(4-methoxyphenyl)-1-piperazinyl]-1-methyl-1H-1,2,4-triazol-5-amine] | 560 | > 10000 | 145.4 |  |  |
| COc1ccc(N2CCN(c3nc(Nc4cc(C(F)(F)F)ccc4F)n(C)n3)CC2(C)C)cc1 [Compound 14, N-[2-fluoro-5-(trifluoromethyl)phenyl]-3-[4-(4-methoxyphenyl)-3,3-dimethyl-1-piperazinyl]-1-methyl-1H-1,2,4-triazol-5-amine] | 110 | > 10000 |  | 78 | 111 |
| COc1ccc(N2CCN(c3nc(Nc4ccc(F)cc4C)n(C)n3)CC2(C)C)cc1 [Compound 6, N-(4-fluoro-2-methylphenyl)-3-[4-(4-methoxyphenyl)-3,3-dimethyl-1-piperazinyl]-1-methyl-1H-1,2,4-triazol-5-amine.1.2HCl. 1.5H2O] | 50 | > 10000 |  | 45 | 109 |
